We go through nine molecules from patent US8722720B2, “Imidazole derivatives as IDO inhibitors” (NewLink Genetics Corporation, priority 2010, dated 2014).

Each structure is given as a SMILES string. pIC50: −log10 of the molar value.

T1 sequence (P14902 whole entry P110S/E119G): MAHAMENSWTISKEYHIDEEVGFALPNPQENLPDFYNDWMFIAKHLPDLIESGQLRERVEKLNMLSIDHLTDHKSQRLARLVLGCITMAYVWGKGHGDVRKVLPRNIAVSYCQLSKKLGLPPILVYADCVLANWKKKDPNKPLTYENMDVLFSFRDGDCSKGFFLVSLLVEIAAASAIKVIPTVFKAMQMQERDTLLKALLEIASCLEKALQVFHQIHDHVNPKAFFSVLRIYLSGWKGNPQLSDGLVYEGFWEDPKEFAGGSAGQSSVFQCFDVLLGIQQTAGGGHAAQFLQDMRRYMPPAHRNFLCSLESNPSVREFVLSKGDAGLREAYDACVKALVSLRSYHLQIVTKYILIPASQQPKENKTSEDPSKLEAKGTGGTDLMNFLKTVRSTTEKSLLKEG

This experiment addresses T1, purified human IDO protein (Homo sapiens, UniProt P14902).
T1 construct: 2 extra amino acids (linker from the BglII cloning site of pQE70); made in house; host or cells: E. coli M15(pREP4) with plasmid pQE70-hIDO
As to the kind of experiment: Enzymatic IDO assay (kynurenine production, absorbance at 480 nm). The experiment is classed as biochemical. Particulars: recombinant human IDO; values reported in ranges; read-out: hIDO IC50. Summed up: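 Inhibitors (final 1 mM to 5 nM, in 50 mM potassium phosphate) preincubated with enzyme 5 min at 25 °C, then 200 μM L-tryptophan added, 15 min at 37 °C. TCA stop and 60 °C hydrolysis to kynurenine, detected with p-dimethylaminobenzaldehyde at 480 nm. IC50 by nonlinear regression.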
Consider `CNC(=O)c1ccccc1CCOc1ccccc1-c1c[nH]cn1` [compound 1332, 2-(2-(2-(1H-imidazol-4-yl)phenoxy)ethyl)-N-methylbenzamide], for which the negative-log IC50 (pIC50) (commonly −log10 of the IC50, conventionally taken in molar units) is less than 4.00. As for `NC(C(=O)Nc1ccc(CCOc2ccccc2-c2c[nH]cn2)c(Cl)c1)C1CCOCC1` (stereo not drawn) [compound 1333, N-(4-(2-(2-(1H-imidazol-4-yl)phenoxy)ethyl)-3-chlorophenyl)-2-amino-2-(tetrahydro-2H-pyran-4-yl)acetamide], the pIC50 was more than 6.00. The result for `CC(=O)NC(C(=O)Nc1ccc(CCOc2ccccc2-c2c[nH]cn2)c(Cl)c1)C1CCOCC1` (stereo not drawn) [compound 1337, N-(4-(2-(2-(1H-imidazol-4-yl)phenoxy)ethyl)-3-chlorophenyl)-2-acetamido-2-(tetrahydro-2H-pyran-4-yl)acetamide] reads more than 6.00; that for `O=C(Nc1ccc(CCOc2ccccc2-c2c[nH]cn2)c(Cl)c1)C1CCCCN1` (stereo not drawn) [compound 1344, N-(4-(2-(2-(1H-imidazol-4-yl)phenoxy)ethyl)-3-chlorophenyl)piperidine-2-carboxamide], 5.00 to 6.00; that for `Nc1ncccc1C(=O)Nc1ccc(CCOc2ccccc2-c2c[nH]cn2)c(Cl)c1` [compound 1345, N-(4-(2-(2-(1H-imidazol-4-yl)phenoxy)ethyl)-3-chlorophenyl)-2-aminonicotinamide], more than 6.00.

Regarding `O=C(Nc1cccc(OC2CCOC2)c1)Nc1ccc(CCOc2ccccc2-c2c[nH]cn2)c(Cl)c1` (stereo not drawn) [compound 1346, 1-(4-(2-(2-(1H-imidazol-4-yl)phenoxy)ethyl)-3-chlorophenyl)-3-(3-(tetrahydrofuran-3-yloxy)phenyl)urea], the pIC50 is 5.00 to 6.00. Turning to `O=C(Nc1ccccc1)Nc1ccc(CCOc2ccccc2-c2c[nH]cn2)c(Cl)c1` [compound 1347, 1-(4-(2-(2-(1H-imidazol-4-yl)phenoxy)ethyl)-3-chlorophenyl)-3-phenylurea], the pIC50 is more than 6.00. The result for `O=C(COc1ccccc1-c1c[nH]cn1)C1CCCCC1` [compound 1354, 2-(2-(1H-imidazol-4-yl)phenoxy)-1-cyclohex-ylethanone] reads 5.00 to 6.00; that for `O=C(Cc1cncnc1)Nc1ccc(CCOc2ccccc2-c2c[nH]cn2)c(Cl)c1` [compound 1366, N-(4-(2-(2-(1H-imidazol-4-yl)phenoxy)ethyl)-3-chlorophenyl)-2-(pyrimidin-5-yl)acetamide], more than 6.00.
